Experiment [1] deals with lung fibroblasts. Nature of the experiment: Western blotting of fibroblast culture supernatants for collagen type I / α1(I). Format: cell-based, human. Conditions: lung fibroblast cultures, 48 h; for effect on PARC-stimulated collagen production: inhibitor plus PARC; for effect on TGF-β-stimulated collagen production: inhibitor plus TGF-β. As to the method:
Collagen Production Assays. Collagen was quantified as described elsewhere (Atamas S P et al.). Briefly, fibroblasts were cultured with β-aminopropionitrile (Sigma) to prevent collagen cross-linking, and Western blotting assays for collagen were performed using rabbit affinity purified anti-collagen type I antibody (Rockland, Gilbertsville, Pa.). Before electrophoresis, samples were reduced and denatured by boiling in Laemmli buffer containing β-mercaptoethanol. Human purified collagen type I (Southern Biotech, Birmingham, Ala.) was used as a positive control in these assays. The identity of collagen bands was confirmed by sensitivity to pepsin and collagenase (both from Sigma) digestion, as described (Atamas S P et al.). Under these conditions, pro-collagen appears as a single or double band around 175 kDa (Gaidarova S et al., Stefanovic B et al.). Images were collected using a Storm densitometer and band densities analyzed with ImageQuant software (Molecular Dynamics, Sunnyvale, Calif.).
Western blotting assays for collagen were performed using rabbit affinity purified anti-collagen type I antibody (Rockland, Gilbertsville, Pa.). Before electrophoresis, samples were reduced and denatured by boiling in Laemmli buffer containing β-mercaptoethanol. Human purified collagen type I (Southern Biotech, Birmingham, Ala.) was used as a positive control in these assays.
Collagen was quantified by Western blotting and the identity of collagen bands was confirmed by sensitivity to pepsin and collagenase digestion as described elsewhere in Atamas et al. (Am. J. Respir. Cell. Mol., 29:743-749 (2003)). In these assays, pro-collagen appears as a single or double band with a molecular weight of approximately 175 kDa (4,27,28).

The next experiment relates to ERK1/2. Nature of the experiment: Immunoblotting for phosphorylation of ERK1/2. The experiment is classed as cell-based, human. Conditions: LF1, rhPARC 15 min, toxin 10 ng/ml. A general note: A western blot detects proteins with antibodies after separation by electrophoresis.
A further experiment relates to Smad3. Nature of the experiment: Smad3 immunoprecipitation and phosphorylation Western blot. The experiment is classed as cell-based, human. Conditions: fibroblasts activated with cytokine. How it is done: To determine if PARC stimulated phosphorylation of Sp1 and Smad3, these factors were immunoprecipitated from lysates of fibroblasts that had been activated with recombinant human PARC for up to 24 hours, and the levels of their phosphorylation were tested in Western blotting assays using anti-phosphoserine and anti-phospho-Smad2/3 antibodies. Equal loading was controlled by stripping the membranes and re-developing them with anti-Sp1, anti-Smad3 and anti-Smad2/3 antibodies (FIG. 17).
Preparation of fibroblast lysates, immunoprecipitation of Sp1 and Smad2/3, normalization of protein concentration in the samples with BioRad assays, electrophoretic separation, Western blotting, membrane stripping and re-development with different antibodies were performed as described in Atamas et al. (Am. J. Respir. Cell. Mol., 29:743-749 (2003); J. Immunol. 168: 1139-1145 (2002); and Arthritis Rheum., 42:1168-1178 (1999)), which are hereby incorporated by reference. Rabbit antibodies for total Smad2/3 and Sp1 were from Upstate (Waltham, Masss.). Antiphospho-Smad2/3 antibody and goat antibody for total Smad3 were from Santa Cruz Biotechnology (Santa Cruz, Calif.), as was anti-gp130 antibody used to confirm equal loading of the samples. Antiphosphoserine antibody was from Biomol (Plymouth Meeting, Pa.).

The target of experiment [2] is Autocrine (active) TGF-β secreted by human primary lung fibroblast cultures (human). Nature of the experiment: cell-based or functional assay.
In experiment [3] the test system is lung fibroblasts. Nature of the experiment: Collagen production, metabolic labeling with 14C-proline, PAGE and autoradiography. Format: cell-based, human. The note with it: for effect on PARC activated collagen production: LF2 lung fibroblasts, 14C-proline. How it is done: Collagen Production Assays. Production of collagen was assessed using metabolic labeling with ^14C-proline and Western blotting with anti-collagen type I antibody. For metabolic labeling of collagen, fibroblasts were plated at 2×10^5 cells/well in 6-well plates (Costar, Cambridge, Mass.), in duplicates, incubated overnight in 3 ml/well of high serum medium, and then for 24 h in low-serum medium. After that, the culture medium was replaced with 1 ml/well of fresh low serum medium with or without added test substances and containing ^14C-proline at 1 μCi/ml (Amersham Pharmacia Biotech). After incubation for the desired periods of time, the cell culture supernatants were collected, rapidly frozen in liquid nitrogen and freeze-dried at −70° C. The pellets were dissolved in 100 μl of reducing Laemmli buffer per 1 ml of the cell culture supernatant, and the samples were electrophoretically separated in 7.5% acrylamide gels. Alternatively, samples were concentrated 10-fold by filter centrifugation on 30K Ultrafree-MC filters (Millipore, Bedford, Mass.). Fluorographic images were developed using EN[3H]ANCE autoradiography enhancer (NEN, Boston, Mass.). Gel images were acquired using Storm densitometer (Molecular Dynamics, Sunnyvale, Calif.), and the densities of the bands were analyzed with ImageQuant software (Molecular Dynamics). Dependence of collagen production by fibroblast cultures on the dose of PARC and duration of stimulation were evaluated using one-way ANOVA with post hoc testing.
The identity of collagen bands was confirmed by sensitivity to pepsin and collagenase (both from Sigma) digestion. For pepsin digestion, 2 μl of 1 Macetic acid were added to 40 μl of concentrated fibroblast culture supernatant, followed by 1 μl of pepsin stock, to achieve final concentration of pepsin as indicated in the text. After 15 min of digestion at room temperature, reaction was stopped with 4 μl of 1 M Tris base and 40 μl of reducing Laemmli buffer. For collagenase digestion, 1 μl of 4 U/ml bacterial collagenase and 1 μl of protease inhibitor cocktail (Sigma) were added to 40 μl of sample and digestion performed at room temperature for 30 min. The bacterial collagenase was highly purified and had minimal clostripain and neutral protease activity, as tested by the manufacturer, according to the product information sheet.
To test effects of rhPARC on collagen protein production by lung and dermal fibroblast cell lines, fibroblast cultures were incubated for 48 h with or without 30 ng/ml and 300 ng/ml rhPARC in the low-serum cell culture medium containing 14Cproline for metabolic labeling of collagen. Fibroblast culture supernatants contained two 14C-proline containing bands in gel electrophoresis under reducing conditions (FIGS. 13A and 13B). Digestion with chromatographically pure bacterial collagenase in the presence of protease inhibitors eliminated the bands completely (FIG. 13A). To confirm the identity of these bands, we conducted Western blotting experiments in reducing conditions of fibroblast culture supernatants using an anti-collagen type I antibody, that recognizes α1(I) collagen but not other collagen chains. Digestion with pepsin caused expected decrease in the apparent molecular weight of the immunoreactive collagen from ˜175 kD to ˜125 kD (FIG. 13C).

A further experiment has as its system fibroblasts. Conditions: reported for MCP-1; cited from earlier work.
Another experiment concerns α2(I) collagen mRNA. Nature of the experiment: Real-time PCR for α2(I) collagen mRNA relative to 18S rRNA. Format: cell-based, human. Conditions: 10 μg/ml actinomycin D before stimulation with PARC. Background: In qPCR the cycle at which signal appears reflects the starting amount.
Where [4] appears, read: listed as Recombinant latency-associated peptide.

Entries after “also recorded” stand apart in the source; their conditions may differ. *1 amine or outer side, *2 acyl side, *3 side chain or, on linkers, in order; H or OH if unused. Where a SMILES comes first, the peptide text is derived from it. Bridges are numbered along the chain shown (N, C = ends). Roman numbers before positions name the chains, in order. [ ]: non-standard residue; d: D form. Actinocin(9to1) = Cc1c2oc3c(C)ccc(C(=O)[*:1])c3nc-2c(C(=O)[*:2])c(N)c1=O; NMeV = CN[C@H](C(=O)O)C(C)C; Sar = CNCC(=O)O

Consider “rhLAP: Latency-associated peptide (R&D Systems) used for TGF-β neutralization”, for which, in the experiment with lung fibroblasts [1] (setting [4]), the “effect on PARC-stimulated collagen production” value is on record as “failed to block the effect of PARC”. The “effect on TGF-β-stimulated collagen production” value in the experiment with lung fibroblasts [1] is recorded as “inhibited stimulating effect of TGF-β”; in the experiment with lung fibroblasts [1] (listed as Recombinant human LAP) it was “inhibited stimulating effect of TGF-β”; in the experiment on lung fibroblasts [1] (setting [4]), “inhibited the effect of TGF-β”. In the case of Bordetella PT [reference compound], in the experiment with ERK1/2, the “effect on PARC-stimulated ERK phosphorylation” value is “inhibited phosphorylation of ERK; also recorded: block PARC-stimulated ERK phosphorylation”. For the molecule “rhTGF-β1: Recombinant human TGF-β1 from R&D Systems, positive control for fibroblast stimulation”, the “phosphorylation of immunoprecipitated Smad3” value in the experiment on Smad3 is “increased phosphorylation of Smad3”. The molecule “Neutralizing anti-pan-TGF-β antibody, monoclonal mouse IgG1 clone 1D11 (R&D Systems)” displayed a mink lung epithelial cell proliferation (thymidine incorporation); antibody concentration that abrogates the inhibition in experiment [2] of 1 µg/mL. Regarding `C[S+]([O-])c1ccc(-c2nc(-c3ccncc3)c(-c3ccc(F)cc3)[nH]2)cc1` (stereo not drawn) [SB203580, reference compound], the “effect on PARC activated collagen production” value with lung fibroblasts [3] is listed as “had no effect”. For the molecule “rhIL-4: recombinant human interleukin 4 purchased from R&D Systems”, in the experiment on lung fibroblasts [3] (LF2 cells, 10 ng/ml rhIL-4, 48 h), the “combined density of procollagen bands, fold higher than non-stimulated control” value amounted to 2.9 fold. For “MCP-1: CC chemokine known to induce collagen production in pulmonary fibroblasts through autocrine TGF-β”, the “concentration stimulating detectable collagen production” value in the experiment on fibroblasts was 100 to 400 ng/mL. As for `COc1cccc(-c2cc(=O)c3ccccc3o2)c1N` [PD98059, reference compound], the “effect on PARC activated collagen production” value in the experiment with lung fibroblasts [3] is “inhibited PARC activated collagen production”. Consider `Cc1c2oc3c(C)ccc(C(=O)N[C@@H]4C(=O)N[C@H](C(C)C)C(=O)N5CCC[C@H]5C(=O)N(C)CC(=O)N(C)[C@@H](C(C)C)C(=O)O[C@@H]4C)c3nc-2c(C(=O)N[C@@H]2C(=O)N[C@H](C(C)C)C(=O)N3CCC[C@H]3C(=O)N(C)CC(=O)N(C)[C@@H](C(C)C)C(=O)O[C@@H]2C)c(N)c1=O` [actinomycin D, Actinomycin D, reference compound] (I: T[dV]P[Sar][NMeV] / II: T[dV]P[Sar][NMeV]; ester I:1-I:C, II:1-II:C; linker I:N-II:N via Actinocin(9to1)), for which the “effect on PARC-induced increase in collagen mRNA” value with α2(I) collagen mRNA is “completely abrogated the increase in collagen mRNA”.

Aprotinin [reference compound]: in the experiment with lung fibroblasts [1], the “effect on PARC-stimulated collagen production” value is on record as “failed to inhibit the effect of PARC” and the “effect on TGF-β-stimulated collagen production” value is “had no effect on collagen production”. As to `NC(=O)c1ccc(-c2nc(-c3ccc4c(c3)OCO4)c(-c3ccccn3)[nH]2)cc1` [SB431542, reference compound], the “effect on TGF-β-stimulated collagen production” value in the experiment on lung fibroblasts [1] is listed as “blocked TGF-β-stimulated; also recorded: abrogated TGF-β-stimulated”.

These data come from US20060009452A1, “Therapeutic targeting of PARC/CCL18 and its signaling in pulmonary fibrosis” (priority 2004, published 2006).
